Assay results published in PMC6150173, “Tryptophan-Containing Cyclic Decapeptides with Activity against Plant Pathogenic Bacteria” (Molecules : A Journal of Synthetic Chemistry and Natural …, 2017).
Several values for one entry are separate records, joined by “and”; a condition that tells them apart may be missing. Identical values can stand only once. Peptide text beside a SMILES is read from it.

Experiments:
Assay type in all cases: cell-based
[1] = tested on: Xanthomonas axonopodis pv. vesicatoria 2133-2; details: Table S1, MIC range
Protocol: (§1) Erwinia amylovora PMV6076 (Institut National de la Recherche Agronomique, Angers, France), Pseudomonas syringae pv. syringae EPS94 (Institut de Tecnologia Agroalimentària, Universitat de Girona, Spain), and Xanthomonas axonopodis pv. vesicatoria 2133-2 (Instituto Valenciano de Investigaciones Agrarias, Valencia, Spain) were used as bacterial strains. They were stored and cultivated as previously described.
(§2) The minimum inhibitory concentration (MIC) was analyzed as previously described at 0.8, 1.6, 3.1, 6.2, 12.5, 25 and 50 μM [20].

[2] = tested on: erythrocyte suspensions of human blood; assay: Hemolytic activity, hemoglobin release; details: human blood erythrocytes 5% v/v, absorbance 540 nm, percentage compared to melittin, three replicates; for Hemolysis (%) at 50 µM: peptide 50 μM (table prints 50 µM); for Hemolysis (%) at 125 µM: peptide 125 μM (table prints 125 µM)
Protocol: The hemolytic activity of the compounds was evaluated at 50 and 125 μM by determining hemoglobin release from erythrocyte suspensions of human blood (5% v/v) (Oxoid) using absorbance at 540 nm, as previously described. Three replicates for each peptide concentration were used.

[3] = tested on: Erwinia amylovora PMV6076; assay: Antibacterial activity (MIC), in vitro growth inhibition; details: Table S1, MIC range
Protocol: as §1, §2

[4] = tested on: Pseudomonas syringae pv. syringae EPS94; assay: as above; details: Table S1, MIC range
Protocol: as §1, §2

| SMILES | MIC Xav [1] [µM] | Hemolysis (%) at 50 µM [2] [%] | Hemolysis (%) at 125 µM [2] | MIC Ea [3] [µM] | MIC Pss [4] [µM] |
| --- | --- | --- | --- | --- | --- |
| CC(C)C[C@@H]1NC(=O)[C@H](CCCCN)NC(=O)[C@H](CCC(N)=O)NC(=O)[C@H](CCCCN)NC(=O)[C@H](CC(C)C)NC(=O)[C@H](CCCCN)NC(=O)[C@H](Cc2c[nH]c3ccccc23)NC(=O)[C@H](CC(C)C)NC(=O)[C@H](CCCCN)NC(=O)[C@H](CCCCN)NC1=O [BPC114W, c(KLKKLWKLKQ)] (cyclo(KKLWKLKQKL)) | 1.6 to 3.1 | 29 | 38% | 12.5 to 25 | 3.1 to 6.2 |
| CC(C)C[C@@H]1NC(=O)[C@H](CCC(N)=O)NC(=O)[C@H](CCCCN)NC(=O)[C@H](CCCCN)NC(=O)[C@H](CC(C)C)NC(=O)[C@H](Cc2c[nH]c3ccccc23)NC(=O)[C@H](CCCCN)NC(=O)[C@H](CC(C)C)NC(=O)[C@H](CCCCN)NC(=O)[C@H](CCCCN)NC1=O [BPC140W, c(LKKLKWLKKQ)] (cyclo(KKLKWLKKQL)) | 3.1 to 6.2 | 31 | 37% | 12.5 to 25 | 6.2 to 12.5 |
| CC(C)C[C@@H]1NC(=O)[C@H](CCCCN)NC(=O)[C@H](Cc2c[nH]c3ccccc23)NC(=O)[C@H](CCCCN)NC(=O)[C@H](CC(C)C)NC(=O)[C@H](CC(C)C)NC(=O)[C@H](CCCCN)NC(=O)[C@H](CCCCN)NC(=O)[C@H](CCC(N)=O)NC(=O)[C@H](CCCCN)NC1=O [BPC118W, c(KKLLKWKLKQ)] (cyclo(KKLLKWKLKQ)) | 12.5 to 25 | 4 | 4% | 12.5 to 25 | 6.2 to 12.5 |
| CC(C)C[C@@H]1NC(=O)[C@H](CCCCN)NC(=O)[C@H](CCCCN)NC(=O)[C@H](CCCCN)NC(=O)[C@H](CCC(N)=O)NC(=O)[C@H](CCCCN)NC(=O)[C@H](CCCCN)NC(=O)[C@H](CC(C)C)NC(=O)[C@H](Cc2c[nH]c3ccccc23)NC(=O)[C@H](CC(C)C)NC1=O [BPC128W, c(KKKLLWLKKQ)] (cyclo(KKKLLWLKKQ)) | 1.6 to 3.1 | 2 | 2% | 12.5 to 25 | 6.2 to 12.5 |
| CC(C)C[C@@H]1NC(=O)[C@H](CCC(N)=O)NC(=O)[C@H](CC(C)C)NC(=O)[C@H](CC(C)C)NC(=O)[C@H](CCCCN)NC(=O)[C@H](Cc2c[nH]c3ccccc23)NC(=O)[C@H](CCCCN)NC(=O)[C@H](CCCCN)NC(=O)[C@H](CCCCN)NC(=O)[C@H](CCCCN)NC1=O [BPC068W, c(LKKKKWKLLQ)] (cyclo(KKKKWKLLQL)) | 1.6 to 3.1 | 6 | 7% | 25 to 50 | 6.2 to 12.5 |
| CC(C)C[C@@H]1NC(=O)[C@H](CCCCN)NC(=O)[C@H](CC(C)C)NC(=O)[C@H](CCCCN)NC(=O)[C@H](CCC(N)=O)NC(=O)[C@H](CCCCN)NC(=O)[C@H](CCCCN)NC(=O)[C@H](CC(C)C)NC(=O)[C@H](Cc2c[nH]c3ccccc23)NC(=O)[C@H](CCCCN)NC1=O [BPC138W, c(KLKLKWLKKQ)] (cyclo(KKQKLKLKWL)) | 3.1 to 6.2 | 7 | 14% | 25 to 50 | 6.2 to 12.5 |
| CC(C)C[C@@H]1NC(=O)[C@H](CCCCN)NC(=O)[C@H](CCCCN)NC(=O)[C@H](CCCCN)NC(=O)[C@H](CCCCN)NC(=O)[C@H](CCC(N)=O)NC(=O)[C@H](CC(C)C)NC(=O)[C@H](CC(C)C)NC(=O)[C@H](CCCCN)NC(=O)[C@H](Cc2c[nH]c3ccccc23)NC1=O [BPC060W, c(KKKKLWKLLQ)] (cyclo(KKKKLWKLLQ)) | 6.2 to 12.5 | 22 | 29% | 12.5 to 25 | 3.1 to 6.2 |
| CC(C)C[C@@H]1NC(=O)[C@H](CCCCN)NC(=O)[C@H](CCCCN)NC(=O)[C@H](CC(C)C)NC(=O)[C@H](CC(C)C)NC(=O)[C@H](CCC(N)=O)NC(=O)[C@H](CCCCN)NC(=O)[C@H](CCCCN)NC(=O)[C@H](CCCCN)NC(=O)[C@H](Cc2c[nH]c3ccccc23)NC1=O [BPC158W, c(LLKKLWKKKQ)] (cyclo(KKKQLLKKLW)) | 1.6 to 3.1 | 10 | 14% | 12.5 to 25 | 12.5 to 25 |
| CC(C)C[C@@H]1NC(=O)[C@H](CCCCN)NC(=O)[C@H](CCC(N)=O)NC(=O)[C@H](CC(C)C)NC(=O)[C@H](CCCCN)NC(=O)[C@H](CC(C)C)NC(=O)[C@H](Cc2c[nH]c3ccccc23)NC(=O)[C@H](CCCCN)NC(=O)[C@H](CCCCN)NC(=O)[C@H](CCCCN)NC1=O [BPC076W, c(KLKKKWLKLQ)] (cyclo(KKKWLKLQKL)) | 1.6 to 3.1 | 15 | 21% | 6.2 to 12.5 | 6.2 to 12.5 |
| CC(C)C[C@@H]1NC(=O)[C@H](CCCCN)NC(=O)[C@H](CCCCN)NC(=O)[C@H](CCCCN)NC(=O)[C@H](CCC(N)=O)NC(=O)[C@H](CCCCN)NC(=O)[C@H](CC(C)C)NC(=O)[C@H](CC(C)C)NC(=O)[C@H](Cc2c[nH]c3ccccc23)NC(=O)[C@H](CCCCN)NC1=O [BPC102W, c(KKKLKWLLKQ)] (cyclo(KKKLKWLLKQ)) | 6.2 to 12.5 | 12 | 17% | 12.5 to 25 | 3.1 to 6.2 |
| CC(C)C[C@@H]1NC(=O)[C@H](CCCCN)NC(=O)[C@H](CCCCN)NC(=O)[C@H](CCC(N)=O)NC(=O)[C@H](CCCCN)NC(=O)[C@H](CCCCN)NC(=O)[C@H](CC(C)C)NC(=O)[C@H](Cc2c[nH]c3ccccc23)NC(=O)[C@H](CCCCN)NC(=O)[C@H](CC(C)C)NC1=O [BPC136W, c(KKLLKWLKKQ)] (cyclo(KKLLKWLKKQ)) | 3.1 to 6.2 | 1 | 2% | 6.2 to 12.5 | 6.2 to 12.5 |
| CC(C)C[C@@H]1NC(=O)[C@H](CCC(N)=O)NC(=O)[C@H](CC(C)C)NC(=O)[C@H](CCCCN)NC(=O)[C@H](CCCCN)NC(=O)[C@H](Cc2c[nH]c3ccccc23)NC(=O)[C@H](CC(C)C)NC(=O)[C@H](CCCCN)NC(=O)[C@H](CCCCN)NC(=O)[C@H](CCCCN)NC1=O [BPC086W, c(LKKKLWKKLQ)] (cyclo(KKKLWKKLQL)) | 0.8 to 1.6 | 4 | 8% and ≤ 8% | 6.2 to 12.5 | 3.1 to 6.2 |
| CC(C)C[C@@H]1NC(=O)[C@H](CCC(N)=O)NC(=O)[C@H](CCCCN)NC(=O)[C@H](CC(C)C)NC(=O)[C@H](CCCCN)NC(=O)[C@H](Cc2c[nH]c3ccccc23)NC(=O)[C@H](CCCCN)NC(=O)[C@H](CC(C)C)NC(=O)[C@H](CCCCN)NC(=O)[C@H](CCCCN)NC1=O [BPC120W, c(LKKLKWKLKQ)] (cyclo(KKLKWKLKQL)) | 1.6 to 3.1 | 6 | 9% and below 20% | 12.5 to 25 | 3.1 to 6.2 |
| CC(C)C[C@@H]1NC(=O)[C@H](CCCCN)NC(=O)[C@H](CCCCN)NC(=O)[C@H](Cc2c[nH]c3ccccc23)NC(=O)[C@H](CCCCN)NC(=O)[C@H](CCCCN)NC(=O)[C@H](CC(C)C)NC(=O)[C@H](CC(C)C)NC(=O)[C@H](CCCCN)NC(=O)[C@H](CCC(N)=O)NC1=O [BPC094W, c(KLLKKWKKLQ)] (cyclo(KKLQKLLKKW)) | 3.1 to 6.2 | 35 | 42% | 25 to 50 | 6.2 to 12.5 |
| CC(C)C[C@@H]1NC(=O)[C@H](CCCCN)NC(=O)[C@H](Cc2c[nH]c3ccccc23)NC(=O)[C@H](CC(C)C)NC(=O)[C@H](CC(C)C)NC(=O)[C@H](CCCCN)NC(=O)[C@H](CCCCN)NC(=O)[C@H](CCCCN)NC(=O)[C@H](CCC(N)=O)NC(=O)[C@H](CCCCN)NC1=O [BPC110W, c(KKKLLWKLKQ)] (cyclo(KKKLLWKLKQ)) | 6.2 to 12.5 | 3 | 4% | 12.5 to 25 | 3.1 to 6.2 |
| CC(C)C[C@@H]1NC(=O)[C@H](CCC(N)=O)NC(=O)[C@H](CC(C)C)NC(=O)[C@H](CCCCN)NC(=O)[C@H](CCCCN)NC(=O)[C@H](Cc2c[nH]c3ccccc23)NC(=O)[C@H](CCCCN)NC(=O)[C@H](CCCCN)NC(=O)[C@H](CCCCN)NC(=O)[C@H](CCCCN)NC1=O [BPC190W, c(LKKKKWKKLQ)] (cyclo(KKKKWKKLQL)) | 12.5 to 25 | 1 | 3% | – | 25 to 50 |
| CC(C)C[C@@H]1NC(=O)[C@H](CCCCN)NC(=O)[C@H](CCCCN)NC(=O)[C@H](CCCCN)NC(=O)[C@H](CCCCN)NC(=O)[C@H](CCC(N)=O)NC(=O)[C@H](CCCCN)NC(=O)[C@H](CC(C)C)NC(=O)[C@H](CC(C)C)NC(=O)[C@H](Cc2c[nH]c3ccccc23)NC1=O [BPC100W, c(KKKKLWLLKQ)] (cyclo(KKKKLWLLKQ)) | 6.2 to 12.5 | 19 | 27% | – | 12.5 to 25 |
